According to US20230159468A1, “NOVEL FORMS OF PRACINOSTAT DIHYDROCHLORIDE” (Macfarlan Smith Limited, priority 2020, published 2023):
Values after ≈ are worked out from the molar mass of the structure shown. Values joined by “and” are separate entries in the source; they are usually repeats but may differ in a detail not shown here. Equal values may be shown once. Read-outs that look alike come from different tables or passages of the source. Each block holds one compound with its values, some of them ahead of it.

Assays:
Type in all cases: physicochemical
[1] = Solubility studies in pH buffer at 37° C. with HPLC analysis; settings: for solubility at 1 h / solubility at 4 h: pH buffer, 37 °C, thermodynamic from solid; for Observation-1 hr / Observation-4 hr: ~6 mg in 5 mL
Procedure: Solubility studies are conducted on the pracinostat diHCl co-crystal with fumaric acid according to the following method:
1. Weigh out ˜6 mg pracinostat diHCl co-crystal with fumaric acid in 5 mL pH buffer;
2. Stir samples at 37° C.;
3. After 1 hour, test and record pH, then remove a 2 mL sample for HPLC analysis;
4. Adjust pH of remaining solution using 0.2M NaOH or HCl, if necessary;
5. After 4 hours, test and record pH, then remove a 2 mL sample for HPLC analysis.
The solubility data are collected using an Agilent 1100 Series HPLC system and analyzed using Chemstation software. The method details are listed below.

[2] = Dynamic vapor sorption (DVS) with XRPD analysis post-DVS; settings: for Solid form by XRPD analysis post-DVS: after DVS; for DVS weight change / Hygroscopicity by DVS: between 0-90% RH
Text: Techniques for characterizing crystal and amorphous forms include but are not limited to differential scanning calorimetry (DSC), thermal gravimetric analysis (TGA), dynamic vapor sorption (DVS), X-ray powder diffractometry (XRPD), single crystal X-ray diffraction (SCXRD), proton nuclear magnetic resonance (^1H-NMR), Fourier transform infrared spectroscopy (FTIR Spectroscopy), and Optical Microscopy.

[3] = Stability studies at 40° C./75% RH, evidenced by XRPD; settings: open vial covered with Kimwipes and sealed vial
[4] = Solubility in solvent mixture of isopropyl alcohol and water; settings: organic solvent or mixture, isopropyl alcohol:water about 8:1 (v/v), about 58° C.
Text: In one embodiment, the volume ratio of isopropyl alcohol to water in the solvent mixture is about 7-9:1; particularly about 8:1. In one embodiment, the solution of pracinostat diHCl is a saturated solution. […] Another embodiment optionally further comprises filtering the combination of pracinostat diHCl and solvent mixture to ensure no particles remain, i.e., to obtain the solution of pracinostat diHCl. In a particular embodiment, the weight to volume ratio of pracinostat diHCl to the solvent mixture is about 84-104 mg:1 mL; particularly about 94 mg:1 mL, wherein if the pracinostat diHCl is not fully dissolved in the solvent mixture, the combination of pracinostat diHCl and solvent mixture is filtered to obtain the solution of pracinostat diHCl. In one embodiment, the weight to volume ratio of Eudragit RS PO to the solution of pracinostat diHCl is about 3.75-6.25 mg:1 mL. In one embodiment, the weight ratio of Eudragit RS PO to pracinostat diHCl is about 1 mg: 14-16 mg. Another embodiment further comprises applying heating during the combining or using a solvent mixture that is heated. In another embodiment, the heating occurs at about 50-70° C. (particularly about 60° C.), or the solvent mixture is heated to about 50-70° C. (particularly about 60° C.). In one embodiment, the cooling is to about 0-10° C., particularly to about 5° C. […]

[5] = starting pH 1.75 buffer, single experiments
[6] = starting pH 7.26 buffer, single experiments

SMILES: CCCCc1nc2cc(/C=C/C(=O)NO)ccc2n1CCN(CC)CC
solubility at 1 h ([1]; pH 1.75, simulated gastric fluid, starting pH 1.75 buffer, single experiments, read-out: Solubility (mg/mL) 1 hr): > 1.07 mg/mL | solubility at 4 h ([1]; pH 1.75, simulated gastric fluid, starting pH 1.75 buffer, single experiments, read-out: Solubility (mg/mL) 4 hr): > 1.08 mg/mL | solubility at 1 h ([1]; pH 7.26, aqueous buffer, starting pH 7.26 buffer, average of Exp. 4-6, read-out: Avg. Solubility ± STD (mg/mL) 1 hr): 0.16 ± 0.01 mg/mL (≈ 446 µM) | solubility at 1 h ([1]; pH 7.26, aqueous buffer, starting pH 7.26 buffer, single experiments, read-out: Solubility (mg/mL) 1 hr): 0.14 mg/mL (≈ 391 µM) | solubility at 4 h ([1]; pH 7.26, aqueous buffer, starting pH 7.26 buffer, average of Exp. 4-6, read-out: Avg. Solubility ± STD (mg/mL) 4 hr): 0.1 ± 0.02 mg/mL (≈ 279 µM) | solubility at 4 h ([1]; pH 7.26, aqueous buffer, starting pH 7.26 buffer, single experiments, read-out: Solubility (mg/mL) 4 hr): 0.08 mg/mL (≈ 223 µM)

SMILES: CCCCc1nc2cc(/C=C/C(=O)NO)ccc2n1CCN(CC)CC [pracinostat diHCl co-crystal with L-arginine]
Solid form by XRPD analysis post-DVS [2]: not stable | DVS weight change [2]: ~12% | Hygroscopicity by DVS [2]: hygroscopic

The remaining lines, values ahead:

Solubility (mg/mL) 1 hr [1, 5]: >0.75 mg/mL and >0.98 mg/mL | Solubility (mg/mL) 4 hr [1, 5]: >0.81 mg/mL and >0.98 mg/mL | Observation-1 hr ([1]; starting pH 1.75 buffer): Clear | Observation-4 hr ([1]; starting pH 1.75 buffer): Clear | Solubility (mg/mL) 1 hr [1, 6]: 0.16 mg/mL and 0.17 mg/mL | Solubility (mg/mL) 4 hr [1, 6]: 0.12 mg/mL and 0.09 mg/mL | Observation-1 hr ([1]; starting pH 7.26 buffer): Cloudy | Observation-4 hr ([1]; starting pH 7.26 buffer): Cloudy | Time stable (solid form, by XRPD) [3]: at least 9 months | Solid form by XRPD analysis post-DVS [2]: remains unchanged | DVS weight change [2]: ~1.7% | Hygroscopicity by DVS [2]: slightly hygroscopic
SMILES: CCCCc1nc2cc(/C=C/C(=O)NO)ccc2n1CCN(CC)CC [pracinostat diHCl co-crystal with fumaric acid]

Solid form by XRPD analysis post-DVS [2]: remains unchanged | DVS weight change [2]: ~8.0% | Hygroscopicity by DVS [2]: hygroscopic
SMILES: CCCCc1nc2cc(/C=C/C(=O)NO)ccc2n1CCN(CC)CC [pracinostat diHCl co-crystal with glycine]

solubility [4]: ~82600 µg/mL
SMILES: CCCCc1nc2cc(/C=C/C(=O)NO)ccc2n1CCN(CC)CC [pracinostat diHCl, (E)-3-(2-Butyl-1-(2-(diethylamino)ethyl)-1H-benzo[d]imidazol-5-yl)-N-hydroxyacrylamide]
